Common to all, as to assay: DTP human tumour cell line panel, 48 h
For assay [1], the system named is ACHN renal.
Assay [2] concerns HT29 colon.
In assay [3] the test system is SF-539 CNS.
The test system of assay [4] is HCT-116 colon.
Assay [5] concerns NCI-H23 lung.
In assay [6] the test system is SN12C renal.
The subject of assay [7] is K-562 leukemia.
Assay [8] deals with UACC-62 melanoma.
The subject of assay [9] is OVCAR-8 ovarian.

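Values below derive from 48-hour exposures of cells grown in 96-well plates, with endpoints linearly interpolated between the two concentrations bracketing the appropriate inhibition level. GI50 = concentration required for 50% inhibition of growth. TGI: total growth inhibition.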

As to `CC(=O)c1c2c(cc3c1CC1(C3)Cc3cc4c(c(C(C)=O)c3C1)CCC4)CCC2`, the TGI in [1], in assay [2], in [3], in assay [4], in [5] and in assay [6] was above 100 µM throughout. The TGI in [7], in [8] and in assay [9] was above 100 µM in each case.

As for `CN(C)CCNC(=O)c1cccc2cc3c(Cl)cccc3nc12`, the TGI (commonly the concentration at which net growth stops) is 2.35 µM in [1]; 6.94 µM in [2]; 4.03 µM in assay [3]; 2.97 µM in assay [4]; 3.23 µM in [5]; 3.95 µM in assay [6]. For the same compound, the TGI in [7] is 4.04 µM; in assay [8] it was 3.82 µM; in [9], above 20.3 µM.

As to `O=C([CH-]C(=O)c1ccccc1)c1ccccc1.[CH-]1CCCCC1.[CH-]1CCCCC1.[CH-]1CCCCC1.[Sn+4]`, the GI50 – broadly, the concentration giving 50% growth inhibition – in [1] was 13.8 µM; in assay [2], 14 µM; in [3], 10.4 µM; in assay [4] it was 6.3 µM; in [5], 6.06 µM; in [6], 4.35 µM. For the same compound, the GI50 in [7] was 2.31 µM; in assay [8], 4.34 µM; in assay [9], 5.47 µM. Further, the TGI in assay [1] was determined as 31.9 µM; in assay [2], 38.5 µM; in assay [3], 27 µM; in assay [4], 19.9 µM; in [5], 20.3 µM; in [6] it was 16.1 µM. In addition, the TGI in [7] was found to be 6.15 µM; in [8] it was 15.6 µM; in [9], 55.4 µM.

In the case of `CNC(=O)c1c(NC(=O)c2ccc(C(C)(C)C)cc2)sc2c(CN(C)C)c(O)ccc12`, the GI50 is 1.66 µM in assay [3], 0.936 µM in assay [4], 0.317 µM in assay [7] and 1.76 µM in assay [8]. Also, the TGI in [3] was 3.13 µM; in assay [4], 2.43 µM; in [7] it was 1.32 µM; in assay [8] it was 3.24 µM.

On to `O=C1C(c2ccc(Br)cc2)=[N+]([O-])c2ccccc21`, for which the TGI in assay [1] was 26.2 µM; in assay [2], 43.8 µM; in assay [3] it was 34.7 µM; in assay [4] it was 27.5 µM; in assay [5], 30.4 µM; in [6], 29.6 µM. Moreover, the TGI in [7] was 33.5 µM; in assay [8], 29.7 µM; in [9], 25.1 µM.

In the case of `N/C(=N\N=C\c1ccc(C(F)(F)F)cc1)NO`, the TGI in assay [1] was 25.6 µM; in [2], above 100 µM; in assay [3] it was 50.6 µM; in assay [4], above 100 µM; in assay [5] it was 52.9 µM; in [6], above 100 µM. The results for the TGI in assay [7], in [8] and in assay [9] were above 100 µM, 21.7 µM and 41.2 µM, respectively.

Take `CCOP(=O)(OCC)C1CCCOC1=O` (stereo not drawn): the TGI in assay [1], in assay [2], in [3], in assay [4], in assay [5] and in assay [6] was above 100 µM in each case. Also, the TGI in assay [7], in assay [8] and in assay [9] was above 100 µM throughout.

On to `COCN1COCN=C1NC#N`, for which the total growth inhibition concentration (TGI) in [1], in [2], in [3], in [4], in [5] and in assay [6] was above 100 µM each time. Besides, the TGI in [7], in assay [8] and in assay [9] was above 100 µM throughout.

Take `COC(=O)N/N=C(\C)c1c(O)cc(C)oc1=O`: the TGI in assay [1] was above 100 µM; in assay [2], above 100 µM; in assay [3] it was 58 µM; in assay [4], above 100 µM; in assay [5], above 100 µM; in assay [6], above 100 µM. Besides, the TGI is 97.7 µM in assay [7], above 100 µM in assay [8] and above 100 µM in [9].

Regarding `O=[N+]([O-])C=C(c1ccc(Cl)cc1)c1ccc(Cl)cc1`, the TGI in assay [1] amounted to 30.5 µM; in [2] it was 35.5 µM; in assay [3], 31.5 µM; in assay [4], 31.5 µM; in [5], 25.6 µM; in [6] it was 35.6 µM. Besides, the TGI in [7] came out at 50.2 µM; in assay [9], 36.3 µM.

`CN(C)C(=N/O)/C(=N\O)N(C)C`: the TGI in assay [1], in assay [2], in [3], in [4], in assay [5] and in assay [6] was above 100 µM in each case. The TGI in [7], in [8] and in assay [9] was above 100 µM in each case.

As for `O=C(O)[C@H](NS(=O)(=O)c1ccc(F)cc1)c1ccccc1`, the TGI in assay [1], in assay [2], in [3], in assay [4], in [5] and in assay [6] was above 100 µM in each case. Besides, the concentration for total growth inhibition (TGI) in assay [7], in assay [8] and in assay [9] was above 100 µM in each case.

`c1ccc(C2OC3(CCC[C@H]4C[C@H]43)O[C@H]2c2ccccc2)cc1` (stereo partly drawn): the TGI in [1], in assay [2], in [3], in assay [4], in [5] and in assay [6] was above 100 µM each time. Besides, the TGI in assay [7], in [8] and in [9] was above 100 µM throughout.

Regarding `CC1=C(C(=O)Nc2ccccc2)C(c2cccc3ccccc23)C(C(=O)Nc2ccccc2)=C(C)N1`, the TGI in [1] was 83.8 µM; in [2] it was 36.2 µM; in [3] it was 37.9 µM; in assay [4], 28.7 µM; in assay [5] it was 52.5 µM; in assay [6], 33.3 µM. Moreover, the TGI was 72.5 µM in [7], 27.8 µM in [8] and 35.8 µM in assay [9].

As for `C[CH2][Ge]([CH2]C)([CH2]C)[O]C(=O)C(OC(C)=O)c1ccccc1` (stereo not drawn), the GI50 in assay [1], in assay [2], in assay [3], in assay [4], in assay [5] and in assay [6] was above 100 µM in each case. The GI50 in assay [7], in assay [8] and in assay [9] was above 100 µM throughout. Moreover, the TGI in assay [1], in [2], in assay [3], in assay [4], in [5] and in assay [6] was above 100 µM each time. The TGI in assay [7], in assay [8] and in [9] was above 100 µM each time.

For `COc1ccc2c3c([nH]c2c1[N+](=O)[O-])C(C)N(Cc1ccccc1)CC3` (stereo not drawn), the TGI in assay [1] was above 100 µM; in assay [2], 13.7 µM; in assay [3], 5.24 µM; in [4] it was 24 µM; in assay [5] it was above 100 µM; in assay [6], above 100 µM. The TGI in assay [7], in assay [8] and in [9] was above 100 µM throughout.

`O=C1C=CC=C/C1=C1/SC(c2ccccc2)=C(O)N1c1ccccc1`: the TGI in [1], in [2], in assay [3], in [4], in assay [5] and in assay [6] was above 100 µM each time. Further, the TGI in [8] and in assay [9] was above 100 µM in each case.

As for `Cc1cccc(C2SCc3nc4ccccc4n32)c1` (stereo not drawn), the concentration for total growth inhibition (TGI) in assay [1] was above 100 µM; in [2] it was above 100 µM; in assay [3] it was above 100 µM; in [4], 56.7 µM; in assay [6], 96.8 µM; in [7] it was above 100 µM. For the same compound, the TGI in assay [8] and in [9] was above 100 µM throughout.

`CCOC(=O)/C(=C/c1ccc(C(=O)OC)cc1)N(CC)CC`: the TGI is above 100 µM in [1]; 60.1 µM in assay [3]; above 100 µM in assay [4]; above 100 µM in assay [5]; above 100 µM in [6]; 82.7 µM in assay [7]. The TGI in [8] and in assay [9] was above 100 µM in each case.

Turning to `CC1/C(=N\O)CC(c2ccccc2)N(C)C1c1ccccc1` (stereo not drawn), the TGI in assay [1], in assay [2], in [3], in assay [4], in [5] and in assay [6] was above 100 µM in each case. For the same compound, the TGI in [7], in assay [8] and in assay [9] was above 100 µM each time.

`ClC/C=C/COC1CCCCO1` (stereo not drawn): the TGI in assay [1], in [2], in assay [3], in [4], in [5] and in assay [6] was above 100 µM each time. For the same compound, the TGI in assay [7], in assay [8] and in assay [9] was above 100 µM each time.

For `CC1=C(/C=C/C(C)=C/C2CC(N(C)C)=CC(=O)O2)C(C)(C)CCC1` (stereo not drawn), the TGI in assay [1] turned out to be 24.8 µM; in [2] it was 27.9 µM; in assay [3] it was 30.2 µM; in [4] it was 43 µM; in assay [5], 27.8 µM; in assay [6] it was 29.2 µM. The TGI in assay [7] was 19.9 µM; in [8], 27 µM; in [9], 32.3 µM.

For `O=C1N2Cc3c4ccc5c3CN3C(=O)N6Cc7c(ccc(c7CN1C6(c1ccccc1)C23c1ccccc1)OCCOCCNCCOCCO4)OCCOCCNCCOCCO5` (stereo not drawn), the TGI in [1] is 47.9 µM; in assay [2], above 100 µM; in assay [3] it was above 100 µM; in [4], above 100 µM; in assay [5], above 100 µM; in [6], 89.1 µM. The TGI in assay [7], in assay [8] and in assay [9] was above 100 µM throughout.

For the compound `Cc1cccc(C)c1NC(=O)C1=NC(=S)NC(c2ccccc2)C1c1nc2ccccc2s1` (stereo not drawn), the TGI in assay [1], in assay [2], in [3], in assay [4], in assay [5] and in assay [6] was above 100 µM in each case. The TGI in assay [7], in [8] and in assay [9] was above 100 µM in each case.

Consider `COC(=O)C1Cc2c(n(C)c3ccccc23)C(CCC(=O)O)N1Cc1ccccc1` (stereo not drawn), for which the total growth inhibition concentration (TGI) in assay [1] was 81.8 µM; in [2] it was above 100 µM; in assay [3], 58 µM; in assay [4], 43.2 µM; in assay [5], 80.7 µM; in assay [6] it was above 100 µM. The concentration for total growth inhibition (TGI) in [7] was above 100 µM; in [8], 77.1 µM; in assay [9], above 100 µM.

On to `COC12C=C/C(=C(/C(=O)OCc3ccccn3)C(=O)CCCCCCCCC3(OC)C=C/C(=C(/C(=O)OCc4ccccn4)C(=O)CCCCCCCC1)O3)O2`, for which the 50% growth inhibitory concentration (GI50) in assay [2] is 0.423 µM; in [3] it was 0.557 µM; in assay [4], 0.223 µM; in [5], 0.249 µM; in [6], 0.356 µM; in assay [7] it was 0.331 µM. Also, the GI50 in [8] is 0.348 µM; in assay [9], 0.406 µM. Also, the TGI in assay [2] was 2.89 µM; in assay [3], 3.2 µM; in assay [4], 0.47 µM; in assay [5] it was 0.689 µM; in assay [6] it was 1.21 µM; in assay [7], above 100 µM. Also, the results for the TGI in assay [8] and in [9] were 1.22 µM and above 100 µM, respectively.

As to `CC(=O)Nc1c(Nc2ccccc2)[nH]c(C)nc1=S`, the TGI in [1], in [5], in [6], in [7], in [8] and in assay [9] was above 100 µM throughout.

In the case of `O=c1[nH]c2ccccc2nc1/C=C(\O)c1ccccc1O`, the TGI in assay [1], in assay [2], in assay [4], in assay [5], in [6] and in assay [7] was above 100 µM each time. Also, the TGI in assay [8] and in [9] was above 100 µM in each case.
